Assay results: US7115592B2, “Phosphonate substituted pyrimidine compounds and methods for therapy” (priority 2003, dated 2006)
Converted amounts (≈) assume the structure as drawn. Marks after values point to notes of the source that are not given here.

What was measured:
HIV = test: microbe, parasite or virus in culture; format: cell-based; conditions: for EC50: Human immunodeficiency virus 1, HIV type not specified, read-out: inhibitory against HIV at
[1] = tested on: MSV-induced tumor cell formation; test: Inhibitory activity against MSV-induced tumor cell formation in newborn NMRI mice; format: in vivo; conditions: for % survivors on day 12 / % tumor free on day 12 / Mean day of animal death / Mean day of tumor initiation: virus i.m. at day 1; for tumor formation: at 50 and 20 mg/kg; for order of antiviral efficacy: among the 5-cyano, 5-chloro and 5-methyl derivatives
Procedure: The 5-cyano (Example 8), 5-methyl (Example 5) and 5-chloro-2,4-diamino-6-[2-(phosphonomethoxy)ethoxy]pyrimidine were also evaluated for their antiretroviral activity in MSV-infected newborn NMRI mice in comparison with PMEA and (R)-PMPA. […] At 5 mg/kg, 90% of mice were free from tumor formation in the presence of 5-methyl derivative, compared with 70% and 10% in the presence of PMEA and (R)-PMPA. […] This phenomenon was also seen with PMEA at 50 and 20 mg/kg, but not with (R)-PMPA at 50 mg/kg.
Inhibitory activity of test compounds against MSV-induced tumor cell formation in newborn NMRI mice

HIV-1 = test: microbe, parasite or virus in culture; format: cell-based; conditions: Human immunodeficiency virus 1; read-out: EC50 against HIV-1
HIV-2 = test: microbe, parasite or virus in culture; format: cell-based; conditions: Human immunodeficiency virus 2; read-out: EC50 against HIV-2
MSV = test: Antiviral activity against MSV in cell culture; format: cell-based, murine (MSV); conditions: Mus musculus; in vitro; read-out: inhibitory against MSV (EC50)
VZV = test: Anti-VZV activity; format: cell-based
[2] = Cytostatic activity in CEM cell cultures; conditions: human

In the case of `N#CCc1c(N)nc(N)nc1OCCOCP(=O)(O)O`, the melting point was 258 to 259 °C (dec.).
`CCOC(=O)Cc1c(N)nc(N)nc1OCCOCP(=O)(O)O` gave a melting point of 199 to 200 °C.
With `Nc1nc(N)c(C2CC2)c(OCCOCP(=O)(O)O)n1` the melting point was 255 to 256 °C.
`Nc1nc(N)c(Cc2ccccc2)c(OCCOCP(=O)(O)O)n1` (hydrate or solvate) gave a melting point of 241 to 242 °C.
With `Nc1nc(N)c(CC(=O)O)c(OCCOCP(=O)(O)O)n1` (hydrate or solvate) the melting point was 228 to 229 °C.
In the case of `Nc1nc(N)c(-c2ccccc2)c(OCCOCP(=O)(O)O)n1` (hydrate or solvate), the melting point was 230 to 231 °C.
Compound `Nc1nc(N)c(C=O)c(OCCOCP(=O)(O)O)n1` (hydrate or solvate) [Example 9, 5-Formyl-2,4-diamino-6-[2-(phosphonomethoxy)ethoxy]pyrimidine] has a melting point of 225 to 227 °C.
For `Nc1cc(OCCOCP(=O)(O)O)nc(N)n1` [5-unsubstituted compound, 2,4-diamino-6-[2-(phosphonomethoxy)ethoxy]pyrimidine, reference compound], the “anti-HIV activity less potent than anti-MSV activity” value (HIV; ratio of anti-HIV to anti-MSV potency) was 20 fold.
In the case of `C[C@H](Cn1cnc2c(N)ncnc21)OCP(=O)(O)O` [(R)-PMPA], the “% survivors on day 12” value ([1]; 5 mg/kg i.p. at days 1-5) was 100%, the “% tumor free on day 12” value ([1]; 5 mg/kg i.p. at days 1-5) was 10% and the “Mean day of animal death” value ([1]; 5 mg/kg i.p. at days 1-5) was over 12 days. The “Mean day of tumor initiation” value ([1]; 5 mg/kg i.p. at days 1-5) was 10.5 ± 2.12 days, the “% survivors on day 12” value ([1]; 20 mg/kg i.p. at days 1-5) was 100% and the “% tumor free on day 12” value ([1]; 20 mg/kg i.p. at days 1-5) was 100%. For the same compound, the “Mean day of animal death” value ([1]; 20 mg/kg i.p. at days 1-5) was over 12 days, the “Mean day of tumor initiation” value ([1]; 20 mg/kg i.p. at days 1-5) was over 12 days and the “% survivors on day 12” value ([1]; 50 mg/kg i.p. at days 1-5) was 100%. The “% tumor free on day 12” value ([1]; 50 mg/kg i.p. at days 1-5) was 100%, the “Mean day of animal death” value ([1]; 50 mg/kg i.p. at days 1-5) was over 12 days and the “Mean day of tumor initiation” value ([1]; 50 mg/kg i.p. at days 1-5) was over 12 days. For the same compound, the tumor formation [1] was “completely prevented”.
`Cc1c(N)nc(N)nc1OCCOCP(=O)(O)O` [Example 5, 5-Methyl-2,4-diamino-6-[2-(phosphonomethoxy)ethoxy]pyrimidine] gave an EC50 (HIV-1) of 0.065 µg/mL (≈ 0.234 µM), an EC50 (HIV-2) of 0.065 µg/mL (≈ 0.234 µM) and an EC50 (MSV) of 0.04 to 0.06 µg/mL (≈ 0.144 to 0.216 µM). The anti-VZV activity (VZV) was “moderate anti-VZV activity”, the “% survivors on day 12” value ([1]; 5 mg/kg i.p. at days 1-5) was 100% and the “% tumor free on day 12” value ([1]; 5 mg/kg i.p. at days 1-5) was 90%. The “Mean day of animal death” value ([1]; 5 mg/kg i.p. at days 1-5) was over 12 days, the “Mean day of tumor initiation” value ([1]; 5 mg/kg i.p. at days 1-5) was 8.0 days and the “% survivors on day 12” value ([1]; 20 mg/kg i.p. at days 1-5) was 100%. The “% tumor free on day 12” value ([1]; 20 mg/kg i.p. at days 1-5) was 100%, the “Mean day of animal death” value ([1]; 20 mg/kg i.p. at days 1-5) was over 12 days and the “Mean day of tumor initiation” value ([1]; 20 mg/kg i.p. at days 1-5) was over 12 days. For the same compound, the “% tumor free on day 12” value ([1]; 50 mg/kg i.p. at days 1-5) was 100%, the “Mean day of animal death” value ([1]; 50 mg/kg i.p. at days 1-5) was 10.1 ± 1.10^b day and the “Mean day of tumor initiation” value ([1]; 50 mg/kg i.p. at days 1-5) was over 12 days. For the same compound, the “Mean day of animal death” value ([1]; 50 mg/kg i.p. at days 1-5, listed as 5-methyl-2,4-diamino-6-[2-(phosphonomethoxy)ethoxy]pyrimidine) was 10.1 days, the “order of antiviral efficacy” value [1] was “most effective agent” and the tumor formation [1] was “completely prevented”. The CC50 [2] was 1.3 to 4.1 µg/mL (≈ 4.67 to 14.7 µM).
For `Nc1nc(N)c(Cl)c(OCCOCP(=O)(O)O)n1` [Example 5-Cl, 5-chloro-2,4-diamino-6-[2-(phosphonomethoxy)ethoxy]pyrimidine], the “% survivors on day 12” value ([1]; 5 mg/kg i.p. at days 1-5) was “(45%)”, the “Mean day of animal death” value ([1]; 5 mg/kg i.p. at days 1-5) was 11.5 ± 0.69 days and the “Mean day of tumor initiation” value ([1]; 5 mg/kg i.p. at days 1-5) was 6.70 ± 0.80 days. For the same compound, the “% survivors on day 12” value ([1]; 20 mg/kg i.p. at days 1-5) was “(80%)”, the “% tumor free on day 12” value ([1]; 20 mg/kg i.p. at days 1-5) was 10% and the “Mean day of animal death” value ([1]; 20 mg/kg i.p. at days 1-5) was 11.8 ± 0.50 days. For the same compound, the “Mean day of tumor initiation” value ([1]; 20 mg/kg i.p. at days 1-5) was 7.44 ± 1.42 days, the “% survivors on day 12” value ([1]; 50 mg/kg i.p. at days 1-5) was 100% and the “% tumor free on day 12” value ([1]; 50 mg/kg i.p. at days 1-5) was 15%. For the same compound, the “Mean day of animal death” value ([1]; 50 mg/kg i.p. at days 1-5) was over 12 days and the “Mean day of tumor initiation” value ([1]; 50 mg/kg i.p. at days 1-5) was 8.76 ± 1.86 days.
With `N#Cc1c(N)nc(N)nc1OCCOCP(=O)(O)O` [Example 8, 5-Cyano-2,4-diamino-6-[2-(phosphonomethoxy)ethoxy]pyrimidine] the EC50 (HIV) was 0.8 to 3.3 µg/mL (≈ 2.77 to 11.4 µM), the EC50 (MSV) was 2.7 to 6 µg/mL (≈ 9.34 to 20.7 µM) and the “Mean day of animal death” value ([1]; 5 mg/kg i.p. at days 1-5) was 10.9 ± 0.57 days. The “Mean day of tumor initiation” value ([1]; 5 mg/kg i.p. at days 1-5) was 6.40 ± 0.70 days, the “% survivors on day 12” value ([1]; 20 mg/kg i.p. at days 1-5) was “(60%)” and the “Mean day of animal death” value ([1]; 20 mg/kg i.p. at days 1-5) was 11.5 ± 0.58 days. For the same compound, the “Mean day of tumor initiation” value ([1]; 20 mg/kg i.p. at days 1-5) was 7.20 ± 1.03 days, the “% survivors on day 12” value ([1]; 50 mg/kg i.p. at days 1-5) was 100% and the “Mean day of animal death” value ([1]; 50 mg/kg i.p. at days 1-5) was over 12 days. The “Mean day of tumor initiation” value ([1]; 50 mg/kg i.p. at days 1-5) was 8.20 ± 1.62 days and the “order of antiviral efficacy” value [1] was “least effective agent”.
With `Nc1nc(N)c(C=O)c(OCCOCP(=O)(O)O)n1` [Example 9, 5-Formyl-2,4-diamino-6-[2-(phosphonomethoxy)ethoxy]pyrimidine] the EC50 (HIV) was 0.8 to 3.3 µg/mL (≈ 2.74 to 11.3 µM) and the EC50 (MSV) was 2.7 to 6 µg/mL (≈ 9.24 to 20.5 µM).
With `Nc1ncnc2c1ncn2CCOCP(=O)(O)O` [PMEA, 9-(2-phosphonylmethoxyethyl)adenine] the “% survivors on day 12” value ([1]; 5 mg/kg i.p. at days 1-5) was 100%, the “% tumor free on day 12” value ([1]; 5 mg/kg i.p. at days 1-5) was 70% and the “Mean day of animal death” value ([1]; 5 mg/kg i.p. at days 1-5) was over 12 days. The “Mean day of tumor initiation” value ([1]; 5 mg/kg i.p. at days 1-5) was 9.33 ± 0.58 days, the “% survivors on day 12” value ([1]; 20 mg/kg i.p. at days 1-5) was 90% and the “% tumor free on day 12” value ([1]; 20 mg/kg i.p. at days 1-5) was 100%. For the same compound, the “Mean day of animal death” value ([1]; 20 mg/kg i.p. at days 1-5) was 9.0 days, the “Mean day of tumor initiation” value ([1]; 20 mg/kg i.p. at days 1-5) was over 12 days and the “% tumor free on day 12” value ([1]; 50 mg/kg i.p. at days 1-5) was 100%. The “Mean day of animal death” value ([1]; 50 mg/kg i.p. at days 1-5) was 8.80 ± 0.63^b day, the “Mean day of tumor initiation” value ([1]; 50 mg/kg i.p. at days 1-5) was over 12 days and the tumor formation [1] was “completely prevented”. For the same compound, the CC50 [2] was 11 µg/mL (≈ 40.3 µM).
